Experimental data: PubChem BioAssay AID248 (DTP/NCI, 2004)
Toxic doses and inconclusive results are not listed. Cut-off read from the data, not from the text of the source: active = T/C of 150% or more; inactive = T/C below 125%.

System: L1210 leukemia ip in BDF1 mice, survival T/C
Assay: NCI In Vivo Anticancer Drug Screen. Data for tumor model L1210 Leukemia (intraperitoneal) in B6D2F1 (BDF1) mice
Settings: endpoint: mean survival time, higher = longer survival
How it was run: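 Antitumor effect is assessed in tumor-bearing animals. Survival in the compound arm is compared with a vehicle-dosed control arm and expressed as their quotient.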

[1] = dose: 100.0 mg/kg/injection, schedule: Q01DX009 (ip), vehicle: Klucel (hydroxypropylcellulose) (HPC)
[2] = dose: 200.0 mg/kg/injection, schedule: Q01DX009 (ip), vehicle: Klucel (hydroxypropylcellulose) (HPC)
[3] = dose: 50.0 mg/kg/injection, schedule: Q01DX001 (ip), vehicle: saline
[4] = dose: 50.0 mg/kg/injection, schedule: Q01DX009 (ip), vehicle: saline with Tween-80
[5] = dose: 100.0 mg/kg/injection, schedule: Q01DX009 (ip), vehicle: saline with Tween-80
[6] = dose: 100.0 mg/kg/injection, schedule: Q04DX003 (ip), vehicle: saline with Tween-80
[7] = dose: 200.0 mg/kg/injection, schedule: Q04DX003 (ip), vehicle: saline with Tween-80
[8] = dose: 400.0 mg/kg/injection, schedule: Q04DX003 (ip), vehicle: saline with Tween-80
[9] = dose: 100.0 mg/kg/injection, schedule: Q01DX009 (ip), vehicle: gum acacia
[10] = dose: 200.0 mg/kg/injection, schedule: Q04DX003 (ip), vehicle: gum acacia
[11] = dose: 400.0 mg/kg/injection, schedule: Q01DX009 (ip), vehicle: gum acacia
[12] = dose: 400.0 mg/kg/injection, schedule: Q04DX003 (ip), vehicle: gum acacia
[13] = dose: 100.0 mg/kg/injection, schedule: Q04DX003 (ip), vehicle: Klucel (hydroxypropylcellulose) (HPC)
[14] = dose: 200.0 mg/kg/injection, schedule: Q04DX003 (ip), vehicle: Klucel (hydroxypropylcellulose) (HPC)
[15] = dose: 400.0 mg/kg/injection, schedule: Q01DX009 (ip), vehicle: Klucel (hydroxypropylcellulose) (HPC)
[16] = dose: 400.0 mg/kg/injection, schedule: Q04DX003 (ip), vehicle: Klucel (hydroxypropylcellulose) (HPC)
[17] = dose: 100.0 mg/kg/injection, schedule: Q01DX001 (ip), vehicle: saline
[18] = dose: 200.0 mg/kg/injection, schedule: Q01DX001 (ip), vehicle: saline
[19] = dose: 400.0 mg/kg/injection, schedule: Q01DX001 (ip), vehicle: saline
[20] = dose: 100.0 mg/kg/injection, schedule: Q04DX003 (ip), vehicle: saline

Measured: T/C

NC(=O)c1cc(Cl)c(OCc2ccccc2)c(Cl)c1
inactive: dose: 75.0 mg/kg/injection, schedule: Q01DX001 (ip), vehicle: saline with Tween-80 98 % of control | dose: 150.0 mg/kg/injection, schedule: Q01DX001 (ip), vehicle: saline with Tween-80 103 % of control | dose: 300.0 mg/kg/injection, schedule: Q01DX001 (ip), vehicle: saline with Tween-80 98 % of control

CS(=O)(=O)Nc1ccccc1N
inactive: [1] 95 % of control | [2] 93 % of control

C=C1C(=O)N(C)CCC1(O)C(CC)C(=O)OC (stereo not drawn)
inactive: dose: 6.25 mg/kg/injection, schedule: Q01DX001 (ip), vehicle: saline 98 % of control | dose: 12.5 mg/kg/injection, schedule: Q01DX001 (ip), vehicle: saline 98 % of control | dose: 25.0 mg/kg/injection, schedule: Q01DX001 (ip), vehicle: saline 98 % of control | [3] 98 % of control

O=C(CCl)Oc1cccc([N+](=O)[O-])c1
inactive: dose: 25.0 mg/kg/injection, schedule: Q01DX009 (ip), vehicle: saline with Tween-80 92 % of control | [4] 112 % of control | [5] 107 % of control | [6] 91 % of control | [7] 96 % of control | [8] 94 % of control

COc1ccc(-n2c(=O)c(N=Nc3ccccc3C)c(O)n(-c3ccc(Cl)cc3)c2=S)cc1
inactive: dose: 50.0 mg/kg/injection, schedule: Q01DX001 (ip), vehicle: Klucel (hydroxypropylcellulose) (HPC) 100 % of control | dose: 100.0 mg/kg/injection, schedule: Q01DX001 (ip), vehicle: Klucel (hydroxypropylcellulose) (HPC) 100 % of control | dose: 200.0 mg/kg/injection, schedule: Q01DX001 (ip), vehicle: Klucel (hydroxypropylcellulose) (HPC) 102 % of control

O=C1NC(c2cccc(Cl)c2)N2C(=O)NC(c3cccc(Cl)c3)N12 (stereo not drawn)
inactive: [9] 93 % of control | dose: 100.0 mg/kg/injection, schedule: Q04DX003 (ip), vehicle: gum acacia 92 % of control | [10] 103 % of control | [11] 90 % of control | [12] 92 % of control

CC(C)c1ccc(NC(=O)Nc2cc(Cl)ccc2Cl)cc1
inactive: [9] 89 % of control | [10] 89 % of control | [11] 89 % of control | [12] 87 % of control

O=[N+]([O-])c1cccc(S(=O)(=O)Oc2ccc(-c3ccccc3)cc2)c1
inactive: [6] 96 % of control | [7] 91 % of control | [8] 90 % of control

Nc1ccc(NS(=O)(=O)c2ccccc2)nc1
inactive: [1] 102 % of control | [13] 106 % of control | [2] 96 % of control | [14] 100 % of control | [15] 93 % of control | [16] 105 % of control

Cc1ccc(NC(=O)OCCN(CCOC(=O)Nc2ccc(C)cc2)Cc2ccccc2)cc1
inactive: [17] 94 % of control | [18] 91 % of control | [19] 94 % of control

Cc1cccc(C)c1N1C(=O)C2C(C1=O)C1(Cl)C(Cl)=C(Cl)C2(Cl)C1(Cl)Cl (stereo not drawn)
inactive: dose: 50.0 mg/kg/injection, schedule: Q01DX009 (ip), vehicle: Klucel (hydroxypropylcellulose) (HPC) 95 % of control | [1] 101 % of control | [13] 114 % of control | [14] 101 % of control

O=P(O)(O)CCC(F)(F)C(F)(F)C(F)(F)C(F)(F)C(F)(F)C(F)(F)C(F)(F)F
inactive: dose: 75.0 mg/kg/injection, schedule: Q01DX001 (ip), vehicle: saline 96 % of control

Cc1cccc(C(=O)OCc2ccccc2CN(C)C)c1
inactive: dose: 75.0 mg/kg/injection, schedule: Q04DX002 (ip), vehicle: Klucel (hydroxypropylcellulose) (HPC) 91 % of control | dose: 150.0 mg/kg/injection, schedule: Q04DX002 (ip), vehicle: Klucel (hydroxypropylcellulose) (HPC) 94 % of control | dose: 300.0 mg/kg/injection, schedule: Q04DX002 (ip), vehicle: Klucel (hydroxypropylcellulose) (HPC) 94 % of control

O=S(=O)(Nc1nccs1)c1ccc(NN=Nc2c(Cl)cc(Cl)cc2Cl)cc1
inactive: [1] 96 % of control | [2] 96 % of control | [15] 97 % of control

CCC1CN2CCc3cc(OC)c(OC)cc3C2CC1CC1c2cc(OC)c(OC)cc2CCN1C(=O)C(N)Cc1ccccc1 (stereo not drawn)
inactive: [17] 107 % of control | [18] 97 % of control | [19] 110 % of control

O=C1CCCN1C1CC2c3ccccc3C1c1cccc[n+]12 (stereo not drawn)
inactive: dose: 5.0 mg/kg/injection, schedule: Q01DX009 (ip), vehicle: saline sonified 94 % of control | dose: 10.0 mg/kg/injection, schedule: Q01DX009 (ip), vehicle: saline sonified 98 % of control | dose: 20.0 mg/kg/injection, schedule: Q01DX009 (ip), vehicle: saline sonified 97 % of control

O=S(=O)(OCC1CO1)c1ccccc1 (stereo not drawn)
inactive: dose: 50.0 mg/kg/injection, schedule: Q01DX006 (ip), vehicle: saline with Tween-80 103 % of control | dose: 100.0 mg/kg/injection, schedule: Q01DX006 (ip), vehicle: saline with Tween-80 106 % of control | dose: 200.0 mg/kg/injection, schedule: Q01DX006 (ip), vehicle: saline with Tween-80 110 % of control

O=C(O)/C=C\C(=O)Nc1ccccn1
inactive: [17] 92 % of control | [18] 100 % of control | [19] 103 % of control

[O-][n+]1ccccc1Cc1ccccc1
inactive: [4] 90 % of control | [5] 90 % of control | dose: 100.0 mg/kg/injection, schedule: Q04DX002 (ip), vehicle: saline with Tween-80 97 % of control | dose: 200.0 mg/kg/injection, schedule: Q01DX009 (ip), vehicle: saline with Tween-80 90 % of control | dose: 200.0 mg/kg/injection, schedule: Q04DX002 (ip), vehicle: saline with Tween-80 101 % of control | dose: 400.0 mg/kg/injection, schedule: Q04DX002 (ip), vehicle: saline with Tween-80 101 % of control

CCSC(SCC)C(NC(C)=O)C1OC(C)(C)OC1C(O)CO (stereo not drawn)
inactive: [3] 97 % of control | [17] 103 % of control | [18] 103 % of control | [19] 103 % of control

CCS(=O)(=O)CC
inactive: dose: 100.0 mg/kg/injection, schedule: Q01DX009 (ip), vehicle: saline 101 % of control | [20] 100 % of control | dose: 200.0 mg/kg/injection, schedule: Q01DX009 (ip), vehicle: saline 106 % of control | dose: 200.0 mg/kg/injection, schedule: Q04DX003 (ip), vehicle: saline 107 % of control | dose: 400.0 mg/kg/injection, schedule: Q01DX009 (ip), vehicle: saline 97 % of control | dose: 400.0 mg/kg/injection, schedule: Q04DX003 (ip), vehicle: saline 95 % of control

CC(C)(C)c1ccc(OC(=S)Nc2ccccc2)cc1
inactive: [6] 111 % of control | [7] 111 % of control | [8] 103 % of control

CN(C)C(=O)c1ccc(O)cc1
inactive: [13] 104 % of control | [14] 92 % of control | [16] 97 % of control

N=c1ccc2nc3ccc(N)cc3sc-2c1
inactive: dose: 6.25 mg/kg/injection, schedule: Q01DX009 (ip), vehicle: saline 104 % of control | dose: 6.25 mg/kg/injection, schedule: Q04DX003 (ip), vehicle: saline 100 % of control | dose: 12.5 mg/kg/injection, schedule: Q01DX009 (ip), vehicle: saline 106 % of control | dose: 12.5 mg/kg/injection, schedule: Q04DX003 (ip), vehicle: saline 96 % of control | dose: 25.0 mg/kg/injection, schedule: Q01DX009 (ip), vehicle: saline 112 % of control | dose: 25.0 mg/kg/injection, schedule: Q04DX003 (ip), vehicle: saline 107 % of control | dose: 50.0 mg/kg/injection, schedule: Q01DX009 (ip), vehicle: saline 98 % of control | dose: 50.0 mg/kg/injection, schedule: Q04DX003 (ip), vehicle: saline 105 % of control | [20] 105 % of control
